{"source": "paper PMC9945865", "about": "“Anticancer evaluation of new organometallic ruthenium(II) flavone complexes” (RSC Medicinal Chemistry, 2022)", "key": {"c-myc i-motif DNA": {"test_system": "c-myc i-motif DNA", "experiment": "I-motif DNA binding, UV-visible absorbance", "design": "species or system human", "details": "DNA : flavonoid 2 μM : 2 μM, pH 5.5, 25 °C", "from_the_text": "(§1) I-motifs are four stranded antiparallel cytosine rich DNA sequences capable of forming at telomere and promotor regions of genomic DNA.[41,42] […] Due to the presence of potential i-motif forming sequences in 69% of promoter regions in human oncogenes, they are postulated to play a key role in oncogene expression regulation.[44] VEGF and c-myc i-motif sequences are prevalent in oncogene promotor regions in many cancers including breast cancer and as such their ligands have potential anticancer roles.[45] The natural flavonol, fisetin, is reported to specifically bind to VEGF i-motif DNA and regulate its function by stabilizing its hairpin structure.[31] […] In continuation of our investigation of the effects of Ru metal complexation on the different biological activities of flavonoids, interactions with VEGF and c-myc i-motif DNA were studied using UV-vis spectroscopic techniques. […] However, 2Ru's addition led to a 1 nm hypsochromic shift of VEGF i-motif absorbance maximum from 272 to 271 nm. On the other hand, addition of the 4-oxo flavone (1) and its Ru complex (1Ru) led to minor changes in λmax of both sequences that was hypochromic (5% and 3%) with VEGF and hyperchromic (2% and 5%) in case of c-myc (Fig. 8).\n(§2) UV-visible absorbance measurements and DNA UV melting studies were performed on a Cary 300 C (Varian USA) UV-visible spectrophotometer. VEGF and c-myc i-motif DNA (5′-3′ sequences ([…]) and ([…]), respectively) were purchased from Sigma-Aldrich (Gillingham, UK) and used without further purification. Na cacodylate buffer (20 mM, pH 5.5) was used for both i-motifs. DNA concentrations were determined by measuring the absorbance at 260 nm after melting using the molar extinction coefficient supplied by the manufacturer. VEGF and c-myc i-motifs were prepared for experiments by diluting with buffer solution, annealed with or without the flavonoid at 95 °C for 5 min then gently cooled to room temperature. The stock solutions of the test compounds (20 mM) were prepared in 100% sterile DMSO. These stocks were then appropriately diluted with HPLC grade water and DMSO levels were maintained below 0.1% in the test concentrations.\n(§3) UV-visible absorbance measurements and UV melting studies of either free i-motifs (VEGF or c-myc), free flavone (1, 1Ru, 2 or 2Ru) or both i-motif DNA and flavone (2 μM: 2 μM) were recorded using 1.0 cm matched quartz cuvettes. First spectra were recorded in the range of 200–500 nm to determine the relevant wavelength range were no peaks were observed above 320 nm. […] UV-visible absorbance was measured at 25 °C while melting curves were collected at a heating rate of 1 °C min^−1 from 20 to 90 °C. Tm was calculated by non-linear fitting of the sigmoidal curve obtained at 295 nm."}, "VEGF i-motif DNA": {"test_system": "VEGF i-motif DNA", "experiment": "I-motif DNA binding, UV-visible absorbance", "design": "species or system human", "from_the_text": "as §1, §2, §3"}, "HUVEC cells": {"test_system": "HUVEC cells", "experiment": "Cytotoxicity on HUVECs, trypan blue exclusion assay", "type": "cell-based, human", "details": "40 μM, 24 h, % of control, p > 0.05 vs control", "procedure": "The biocompatibility of flavones (1 and 2)[30] alongside their ruthenium(II) metal complexes (1Ru and 2Ru) with HUVEC cells was established using the trypan blue exclusion assay. A concentration four times higher (i.e. 40 μM) than the highest concentration used for the tube formation antiangiogenic evaluation study (i.e. 10 μM) was selected for this cytotoxic assay.\nCytotoxic activity of treatments on HUVECs using trypan blue exclusion assay.[55] HUVECs were seeded in 96 well plates at 1 × 10^5 cells per mL and cultured for 24 h. Cells were then treated with either luteolin, the synthesised derivatives at 40 μM or culture medium (control) for 24 h. After 24 h, solutions were removed and cells washed with 100 μL PBS followed by the addition of 50 μL trypsin–EDTA and incubation for 5 min to detach the cells. 50 μL of EGM-2 media was added to the wells. 50 μL aliquots of the cell suspension were mixed with equal volume of trypan blue (TB) 0.2% v/v (prepared from 0.4% TB diluted with PBS) then the cells were counted using a haemocytometer. Number of viable and dead cells were counted manually and % cell viability of each treatment was expressed as % of control using the equation:% Cell Viability = (Cell viability in treatment/Cell viability in control) × 100where cell viability was calculated as follows:Cell Viability = Number of viable cells/Total number of cells(viable and dead)."}, "HUVECs": {"test_system": "HUVECs", "experiment": "Matrigel endothelial cell tube formation assay (VEGF-mediated)", "type": "cell-based, human", "details": "12 h; for tube formation inhibition activity: 1 μM", "procedure": "In our recent study,[30] the 4′-chlorophenylflavone derivatives 1 and 2 have shown promising antiangiogenic activities in vitro. Herein, the effect of complexation with a ruthenium(II) metal ligand on the antiangiogenic activity of 1 and 2 was evaluated using the Matrigel tube formation assay that assesses many of the main steps involved in the process of angiogenesis. Inhibition of VEGF-mediated tube formation by the tested substrates was observed after 12 h of treatment on HUVECs at 1 μM and 10 μM concentrations. Luteolin is a natural flavone well known for its high antiangiogenic activity both in vitro and in vivo[34] and as such was used in this study as a reference standard. In accordance with reported data, luteolin inhibited the measured elements of tube formation by 30% compared to the positive control.[34,35] […] The ability of Ru(II) organometallic derivatives to target tumour metastasis has been widely reported both in vitro and in vivo.[3,6,9,36] Thus, based on the preliminary antiangiogenic trends observed for our target Ru(II) complexes (1Ru and 2Ru) and their parent flavones (1 and 2), we further investigated their antiproliferative and antimetastatic potential on the estrogen receptor positive breast cancer cell line (MCF-7) and the more aggressive triple negative cell line (MDA-MB-231).\nHUVECs were cultured until confluency and then serum starved (0.1% serum) for 24 h. The tube formation assay followed the reported assay.[56] Briefly, 96 well plates were coated with 50 μL of Corning™ Matrigel™ GFR Membrane Matrix at 4 °C and incubated at 37 °C for 1–2 h to solidify. Serum starved HUVECs were seeded on the solidified Matrigel at 3 × 10^5 cells per mL and treated with medium containing VEGF (10 ng mL^−1) and either luteolin or one of the synthesised derivatives (at 1 μM or 10 μM). Plates were incubated for 12 h and photos covering the whole well area were taken using 4× magnification power of an inverted light microscope. Number of junctions, number and length of segments and master segments were quantified from the taken Images via the Angiogenesis Analyzer plugin[57] in ImageJ software.[58] […] Data was represented as a ratio to the positive control (VEGF enriched)."}, "[1]": {"details": "DNA : flavonoid 2 μM : 2 μM, pH 5.5, 25 °C"}}}
{"smiles": "Cc1ccc(C(C)C)cc1.O=c1cc(-c2ccc(Cl)cc2)oc2cc(O)cc([O-])c12.[Cl-].[Ru+2]", "note": "[1Ru, chlorido [(5-oxo-κO)-7-hydroxy-2-(4′-chlorophenyl)-4H-chromen-4-onato-κO] (η^6-p-cymene)ruthenium(II)]", "values": [{"measurement": "hyperchromic shift (increase) at absorbance maximum λmax", "setting": "c-myc i-motif DNA", "value": 5, "unit": "%"}, {"measurement": "hypochromic change at λmax", "setting": "VEGF i-motif DNA; [1]", "value": 3, "unit": "%"}, {"measurement": "Cell viability of HUVECs", "setting": "HUVEC cells", "value": "~100", "unit": "%"}, {"measurement": "tube formation inhibition activity", "setting": "HUVECs", "value": "total loss of their parents' tube formation inhibition activity"}, {"measurement": "overall tube formation inhibition", "setting": "HUVECs; 10 μM, insignificant (p > 0.05)", "value": 22, "unit": "%"}]}
{"smiles": "Cc1ccc(C(C)C)cc1.[Cl-].[O-]c1cc(O)cc2oc(-c3ccc(Cl)cc3)cc(=S)c12.[Ru+2]", "note": "[2Ru, chlorido [(5-oxo-κO)-7-hydroxy-2-(4′-chlorophenyl)-4H-chromen-4-thionato-κO] (η^6-p-cymene)ruthenium(II)]", "values": [{"measurement": "hyperchromic shift (increase) at absorbance maximum λmax", "setting": "c-myc i-motif DNA", "value": 8, "unit": "%"}, {"measurement": "hyperchromic shift (increase) at absorbance maximum λmax", "setting": "VEGF i-motif DNA; [1]", "value": 2, "unit": "%"}, {"measurement": "hypsochromic shift of absorbance maximum", "setting": "VEGF i-motif DNA; from 272 to 271 nm, 1 : 1 ratio", "value": 1, "unit": "nm"}, {"measurement": "Cell viability of HUVECs", "setting": "HUVEC cells", "value": "~100", "unit": "%"}, {"measurement": "tube formation inhibition activity", "setting": "HUVECs", "value": "total loss of their parents' tube formation inhibition activity"}, {"measurement": "reduction in the number of junctions", "setting": "HUVECs; 10 μM, p < 0.01", "value": 40, "unit": "%"}, {"measurement": "reduction in number and length of master segments", "setting": "HUVECs; 10 μM, p < 0.05", "value": 35, "unit": "%"}]}
